According to US20100248223A1, “ASSESSING OUTCOMES FOR BREAST CANCER PATIENTS” (MAYO FOUNDATION FOR MEDICAL EDUCATION AND RESEARCH, priority 2006, published 2010):
Where two headings read alike, the source gives them in different places.

Columns and labels:
[1] = biological target: CYP2D6 enzyme system (Homo sapiens, UniProt P10635); conditions: classification from cited literature; cited from earlier work
[2] = system: resected ER positive breast cancer; conditions: for 9 year RFS rate / 5-year DFS: node negative
Text: Patients. […] Postmenopausal women with node-negative disease were required to have stage T1c or T2N0M0 cancer and could be any age, whereas women with node-positive disease were required to be at least 65 years of age with a tumor stage T1 (any N) or T2N1M0. […] Patients were surgically treated with either a modified radical mastectomy or breast conservative therapy including lumpectomy, axillary nodal dissection, and radiation therapy. The axillary dissection must have involved at least levels I and II and the examination of at least 6 axillary nodes. […] Postlumpectomy radiation therapy consisted of a total cumulative breast dose of 5040 cGy in 28 fractions, and those with axillary nodal involvement also received radiation to the axilla and supraclavicular regions. Patients were classified as ER positive if resected breast tissue contained ≧10 fmol of ER polypeptide/mg cytosol protein or was positive for ER polypeptide by an immunohistochemical assay. All patients were randomized within 6 weeks of definitive surgery.
Patients were stratified based on axillary lymph node status (0, 1-3, 4-9 vs. 10 or more), age (<65 years vs. >65), primary tumor size (<3 cm vs. >3 cm), ER status (10-49 fmol vs. 50 fmol or greater vs. positive by immunohistochemical assay), and extent of surgery (mastectomy vs. breast conservation therapy).
Study Design and End Points. One objective of this study was to examine the relationship between the HOXB13:IL-17BR expression ratio and clinical outcomes of relapse-free survival, disease-free survival, and overall survival. Relapse-free survival (RFS) was defined as the time from randomization to documentation of the first of the following events: any recurrence (local, regional or distant) of breast cancer, a contralateral breast cancer or death. When estimating the distribution of RFS, patients who developed a non-breast second primary cancer (other than squamous or basal cell carcinoma of the skin, carcinoma in situ of the cervix, or lobular carcinoma in situ of the breast) prior to the diagnosis of a breast event were censored on the day their second primary was diagnosed. Patients who were alive without a breast recurrence, contralateral breast cancer or a second non-breast primary cancer were censored at the date of their last disease evaluation. Disease-free survival (DFS) was defined as the time from randomization to documentation of the first of the following events: any recurrence (local, regional or distant) of breast cancer, a contralateral breast cancer, a second primary cancer, or death due to any cause. Patients who were alive without any of these events were censored at the date of their last disease evaluation. Overall survival (OS) was estimated as the time from registration to death due to any cause.
Relapse-free (RF) time was defined as the time from randomization to documentation of a breast event where a breast event is any recurrence (local, regional, or distant) of breast cancer or the documentation of contralateral breast cancer (including ductal carcinoma in situ). When estimating the distribution of RF time, patients who developed a non-breast second primary cancer (other than squamous or basal cell carcinoma of the skin, carcinoma in situ of the cervix, or lobular carcinoma in situ of the breast) prior to the diagnosis of a breast event were censored on the day their second primary was diagnosed. Patients (alive or dead) without a breast recurrence, contralateral breast cancer or a second non-breast primary cancer were censored at the date of their last disease evaluation.
Disease-free survival (DFS) was defined as the time from randomization to documentation of the first of the following events: any recurrence (local, regional or distant) of breast cancer, the documentation of contralateral breast cancer, or death due to any cause.

[3] = patients with gene expression data (n=206), oral tamoxifen 20 mg daily for 5 years

Chain of CYP2D6 enzyme system (P10635 whole entry): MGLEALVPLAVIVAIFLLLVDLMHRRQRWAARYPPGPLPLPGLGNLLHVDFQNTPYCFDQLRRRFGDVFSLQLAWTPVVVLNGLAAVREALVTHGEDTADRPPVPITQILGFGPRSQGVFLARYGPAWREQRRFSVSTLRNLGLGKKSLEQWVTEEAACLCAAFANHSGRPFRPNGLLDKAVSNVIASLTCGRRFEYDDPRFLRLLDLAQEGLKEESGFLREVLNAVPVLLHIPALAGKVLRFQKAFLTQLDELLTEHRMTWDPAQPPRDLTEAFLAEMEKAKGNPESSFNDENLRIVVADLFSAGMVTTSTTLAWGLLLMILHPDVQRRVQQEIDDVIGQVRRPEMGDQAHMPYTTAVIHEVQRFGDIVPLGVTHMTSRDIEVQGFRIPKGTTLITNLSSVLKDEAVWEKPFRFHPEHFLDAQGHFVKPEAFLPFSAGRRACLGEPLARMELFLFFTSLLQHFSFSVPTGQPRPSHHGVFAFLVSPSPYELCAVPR

Compound: CN/C(=N/CCSCc1nc[nH]c1C)NC#N [cimetidine]
- strength of inhibition of the CYP2D6 enzyme system [1]: moderate

Compound: Fc1ccc([C@@H]2CCNC[C@H]2COc2ccc3c(c2)OCO3)cc1 [paroxetine]
- strength of inhibition of the CYP2D6 enzyme system [1]: potent

Compound: CN[C@H]1CC[C@@H](c2ccc(Cl)c(Cl)c2)c2ccccc21 [sertraline]
- strength of inhibition of the CYP2D6 enzyme system [1]: moderate

Compound: CN(C)CCC=C1c2ccccc2COc2ccccc21 [doxepin]
- strength of inhibition of the CYP2D6 enzyme system [1]: moderate

Compound: O=C(CCCN1CCC(O)(c2ccc(Cl)cc2)CC1)c1ccc(F)cc1 [haloperidol]
- strength of inhibition of the CYP2D6 enzyme system [1]: moderate

Compound: CC/C(=C(\c1ccccc1)c1ccc(OCCN(C)C)cc1)c1ccccc1 [tamoxifen]
- patients reporting mild (grade 1) hot flashes (223 patients): 40%
- patients reporting moderate (grade 2) hot flashes (223 patients): 15%
- patients reporting severe (grade 3) hot flashes (223 patients): 5%
- % of patients who developed moderate or severe hot flashes (CYP2D6 (*4) *4/Wt genotype): 9/40 (23%)
- % of patients who developed moderate or severe hot flashes (CYP2D6 (*4) Wt/Wt genotype): 27/137 (20%)
- % of patients who developed moderate or severe hot flashes (CYP2D6 *4/WT or WT/WT genotypes (n=177)): 20%
- % of patients who developed moderate or severe hot flashes (CYP3A5 (*3) A/A genotype): 1/6 (17%)
- % of patients who developed moderate or severe hot flashes (CYP3A5 (*3) G/A genotype): 6/24 (25%)
- % of patients who developed moderate or severe hot flashes (CYP3A5 (*3) G/G genotype): 37/175 (21%)
- 9 year RFS rate ([2]; Goetz index high risk): 46%
- 9 year RFS rate ([2]; Goetz index intermediate risk): 65%
- 9 year RFS rate ([2]; Goetz index low risk): 87%
- 5-year DFS ([2]; risk profile 1: 2-gene ratio <−1.339, CYP2D6 extensive): 94%
- 5-year DFS ([2]; risk profile 3: 2-gene ratio >−1.339, CYP2D6 extensive): 83%
- 5-year DFS ([2]; risk profile 4: 2-gene ratio >−1.339, CYP2D6 decreased): 57%
- Kaplan-Meier estimate for the 5 year DFS [2, 3]: 74.3%
- Kaplan-Meier estimate for the 5 year OS [2, 3]: 78.2%
- Kaplan-Meier estimate for the 5 year RFS [2, 3]: 75.6%
